Assay results as given in patent publication US11980633B2, “Method for treating cancer using a combination of DNA-damaging agents and DNA-PK inhibitors” (Vertex Pharmaceuticals Incorporated, priority 2016, dated 2024).

Legend:
OVCAR-3 Xenograft Tumors = assay: OVCAR-3 cell line xenograft: DOXIL given 16 hr prior to Compound B-2 CoX (PO); tumor growth; assay type: in vivo, nu/nu nude mice; conditions: 100 mg/kg Compound B-2 CoX qd×2 alone
Description: (§1) Statistical significance was defined as P<0.05.

HCT 116 Xenograft Tumors = assay: HCT 116 cell line xenograft: DOXIL given 16 hr prior to Compound B-2 CoX (PO), 2 weekly cycles; tumor growth (studies of Tables 4-9); assay type: in vivo, nu/nu nude mice; conditions: Table 5 study; 100 mg/kg Compound B-2 CoX qd×4 alone
Procedure: as §1
Effect of Compound B-2 CoX Schedule in Combination with DOXIL® in HCT 116 Xenograft Tumors: The HCT 116 xenograft tumor model was selected for further examination of the effect of schedule and dose of Compound B-2 CoX in combination with DOXIL®. In this study, the effect of dosing Compound B-2 CoX qd for 2, 3, and 4 days following DOXIL® was examined.
Dose Response of DOXIL® alone and Dose Response of Compound B-2 CoX in Combination with 6 mg/kg DOXIL® in HCT 116 Xenograft Tumors: Additional investigations were conducted to determine the dose response of DOXIL® alone (1.5-6 mg/kg) in the HCT 116 xenograft tumor model. Further, a dose response of Compound B-2 CoX (25-100 mg/kg) in combination with 6 mg/kg DOXIL® was also assessed. Lastly, the efficacy of 1.5 mg/kg DOXIL® in combination with 200 mg/kg Compound B-2 CoX was also examined.
Result of reexamination of Compound B-2 CoX Dose and Schedule in Combination with DOXIL® in an HCT 116 Xenograft Mouse Model.
Examination of the Effect of Compound B-2 CoX Dose in Combination with 3 mg/kg DOXIL® in an HCT 116 Xenograft Tumor Model: A 3 mg/kg DOXIL® dose was examined in combination with a range of doses of Compound B-2 CoX (50-200 mg/kg) to identify the response of HCT 116 xenograft tumors to these combinations. […]

[1] = test system: pKAP1 and pH2AX levels in MDA-MB-436 and MDA-MB-468 breast cancer cells; assay: pKAP1 and pH2AX immunoblot, Compound B-2 and doxorubicin in MDA-MB-436 and MDA-MB-468 cells; assay type: cell-based, human; conditions: 500 nM doxorubicin alone; at 4 h, remained elevated to 8 h
Procedure: (§2) Materials and Methods. The human cancer cell lines A549 (CCL-185), DU4475 (HTB-123), MDA-MB-436 (HTB-130), and MDA-MB-468 (HTB-132) were obtained from American Type Culture Collection (ATCC; Manassas, VA). A 10 mM stock solution of Compound B-1 or Compound B-2 was prepared in DMSO and stored at −20° C. Etoposide and doxorubicin were purchased from Sigma-Aldrich (St. Louis, MO).
(§3) The A549 human lung cancer cell line was purchased from ATCC and was cultured in DMEM supplemented with 10% fetal bovine serum, 1× non-essential amino acids and 1× Penicillin/Streptomycin (complete medium). Cells were maintained at a subconfluent state by passaging every 2-3 days. Human breast cancer cells lines DU4475, MDA-MB-436, and MDA-MB-468 were purchased from ATCC and cultured in DMEM supplemented with 10% fetal bovine serum, 1× Glutamax and Penicillin/Streptomycin. Cells were maintained at a subconfluent state by passaging every 2-3 days.
(§4) Compound B-1 and Compound B-2 used in these experiments were not prepared as a co-crystals.
(§5) Breast cancer cell lines grown in 24-well (Costar, catalog #3526) or 6-well (Costar, catalog #3516) tissue culture plates to 70-80% confluence were pre-incubated with 1 μM Compound B-2 or DMSO for 15 min. Doxorubicin was added to a final concentration of either 100 nM or 500 nM from a 1000× stock prepared in DMSO. Cells were then incubated for the indicated amount of time and harvested for analysis.
Cell Lysis and Western Blot Analysis. […]
To determine that enhancement of DNA damage by concurrent treatment of cells with Compound B-2 and doxorubicin was not specific to DU4475 cells, two additional breast cancer cell lines, MDA-MB-436 and MDA-MB-468, were also pre-incubated with 1 μM Compound B-2 for 15 min, followed by addition of 500 nM doxorubicin. Cells were harvested at various time points following doxorubicin addition and analyzed for levels of pKAP1 and pH2AX by immunoblotting.

[2] = test system: pKAP1 and pH2AX levels in DU4475 breast cancer cells; assay: pKAP1 and pH2AX immunoblot, Compound B-2 and doxorubicin in DU4475 breast cancer cells; assay type: cell-based, human; conditions: doxorubicin alone, 100 nM or 500 nM; from 4-8 h, elevated up to 24 h at 500 nM only
Procedure: as §2, §3, §4, §5
Cell Lysis and Western Blot Analysis. Cells treated with Compound B-1 or Compound B-2 in combination with chemotherapeutic agents were washed once with ice-cold PBS and then dissolved in 150 μL/well 2×SDS-PAGE sample buffer, transferred to microfuge tubes, and heated in a 105° C. heat block for 5 min for immunoblotting. A 15-μL aliquot of each SDS-PAGE sample was loaded onto 12-lane 4 20% Tris-Glycine gels and the gels were run at 125v constant voltage until the dye front reached the bottom (approximately 2 h). Following electrophoresis, separated proteins in the gels were transferred to a nitrocellulose membrane. Transfer was carried out for 2 h at 1.5 A constant current in a cold room using a Hoefer transfer apparatus (Model TE42 or TE62, Hoefer Inc, Holliston, MA) according to manufacturer's instructions. Following transfer, nitrocellulose membranes were incubated with blocking buffer for 1 h at room temperature. The nitrocellulose membranes were cut and the bottom halves were incubated overnight with 2 primary antibodies, anti-pH2AX (1/1000) and anti-total H2AX (1/1000). After washing, the appropriate fluorescently labeled secondary antibodies were added to the membranes and then imaged with pH2AX on the 800 (green) channel and total H2AX on the 700 (red) channel. The top halves of the membranes were probed sequentially for pKAP1 (1/1000) on the 700 (red) channel and then probed for total KAP1 (1/1000) and GAPDH (1/2500) on the 800 (green) channel. Image acquisition was conducted using an Odyssey fluorescent imaging system (Li-Cor Biosciences; Lincoln, NE).
Compound B-2 and doxorubicin combination in breast cancer cell lines in culture. To examine the effect of DNA-PK inhibition on pKAP1 and pH2AX in vitro, DU4475 breast cancer cells were pre-incubated with 1 μM Compound B-2 for 15 min, followed by addition of 100 nM or 500 nM doxorubicin. Cells were harvested at various time points following doxorubicin addition and analyzed for levels of pKAP1 and pH2AX by immunoblotting.

Row | SMILES | % T/C (Day 43) (OVCAR-3 Xenograft Tumors) | % T/C (Day 19) (HCT 116 Xenograft Tumors) | pKAP1 and pH2AX level [1] | pKAP1 and pH2AX level [2]
1 | [2H]c1nc(C)nc([2H])c1-c1cc(NC[C@@H](C)c2cccc3c(C(=O)NC)ccnc23)ncn1 [Compound B-2 CoX] | 83.2% | 106% | – | –
2 | COc1cccc2c1C(=O)c1c(O)c3c(c(O)c1C2=O)C[C@@](O)(C(=O)CO)C[C@@H]3O[C@H]1C[C@H](N)[C@H](O)[C@H](C)O1 [Doxorubicin, reference compound] | – | – | increased level | increased level
